According to US11325899B2, “Benzofurane and benzothiophene derivatives as PGE2 receptor modulators” (IDORSIA PHARMACEUTICALS LTD, priority 2017, dated 2022):

Columns and labels:
Assay type in all cases: cell-based
PTGER2 (EP2) = target: T1, PTGER2 (EP2) (Homo sapiens, UniProt P43116); experiment: hEP2 b-arrestin assay (PathHunter HEK 293 PTGER2 b-arrestin cells); conditions: antagonistic activity, beta-arrestin assay; read-out: hEP2 b-arr IC50
T1 construct: host or cells: HEK 293 (PathHunter PTGER2 b-arrestin cell line)
T1 sequence (P43116 whole entry): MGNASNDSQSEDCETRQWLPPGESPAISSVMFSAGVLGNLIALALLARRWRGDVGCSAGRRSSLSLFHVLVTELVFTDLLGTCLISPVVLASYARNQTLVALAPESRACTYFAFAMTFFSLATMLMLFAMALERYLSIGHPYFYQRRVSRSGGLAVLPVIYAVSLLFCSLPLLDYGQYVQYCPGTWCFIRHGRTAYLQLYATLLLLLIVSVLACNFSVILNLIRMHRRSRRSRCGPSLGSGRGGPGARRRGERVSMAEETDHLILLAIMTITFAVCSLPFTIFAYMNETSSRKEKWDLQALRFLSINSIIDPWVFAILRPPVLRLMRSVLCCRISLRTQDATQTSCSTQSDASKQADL
In short: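 PathHunter HEK293 cells with ProLink-tagged EP2 and EA-β-arrestin 2 preincubated 15 min at 37 °C with compound (10 μM-2 nM or 1 μM-0.2 nM), then stimulated 120 min with 5 μM PGE2 (EC80). β-gal complementation read by chemiluminescence; IC50 from duplicate dose-response versus DMSO.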

PTGER4 (EP4) = target: T2, PTGER4 (EP4) (Homo sapiens, UniProt P35408); experiment: hEP4 b-arrestin assay (PathHunter HEK 293 PTGER4 b-arrestin cells); conditions: antagonistic activity, beta-arrestin assay; read-out: hEP4 b-arr IC50
T2 construct: host or cells: HEK 293 (PathHunter PTGER4 b-arrestin cell line)
T2 sequence (P35408 whole entry): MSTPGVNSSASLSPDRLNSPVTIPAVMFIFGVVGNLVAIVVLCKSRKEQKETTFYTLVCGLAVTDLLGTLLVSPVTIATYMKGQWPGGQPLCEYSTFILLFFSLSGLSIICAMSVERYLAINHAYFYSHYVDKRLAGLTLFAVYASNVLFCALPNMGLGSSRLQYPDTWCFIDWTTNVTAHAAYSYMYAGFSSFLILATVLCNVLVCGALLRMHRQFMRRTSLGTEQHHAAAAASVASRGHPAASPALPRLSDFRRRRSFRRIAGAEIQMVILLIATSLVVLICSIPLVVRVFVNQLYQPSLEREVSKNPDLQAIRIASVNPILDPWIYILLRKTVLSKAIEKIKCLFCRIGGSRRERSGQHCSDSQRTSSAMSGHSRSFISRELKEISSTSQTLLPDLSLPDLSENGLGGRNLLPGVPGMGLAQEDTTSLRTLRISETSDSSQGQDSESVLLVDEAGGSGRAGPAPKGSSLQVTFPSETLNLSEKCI
In short: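 PathHunter HEK 293 cells expressing ProLink-tagged human EP4 and EA-β-arrestin 2, seeded 24 h before. Compounds (10 μM–2 nM or 1 μM–0.2 nM) preincubated 15 min at 37 °C, then 20 nM PGE2 (EC80) for 120 min at 37 °C. β-gal complementation luminescence read; IC50 from duplicate dose-response curves versus DMSO control.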

EP2 receptor = target: T3, EP2 receptor (Homo sapiens, UniProt P43116); experiment: hEP2 cAMP assay (SF295 glioblastoma cells, HTRF cAMP, PGE2 stimulation); conditions: antagonistic activity
T3 construct: SF295 glioblastoma cells express high endogenous EP2 and no EP4; host or cells: SF295 glioblastoma cells
T3 sequence (P43116 whole entry): as the sequence (P43116 whole entry) above
In short: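 SF295 glioblastoma cells with endogenous EP2 and no EP4, in HBSS/HEPES/BSA with 2 mM IBMX, pre-incubated 45 min at room temperature with compound, then stimulated 30 min with 75 nM PGE2 (EC80). cAMP measured by HTRF; IC50 fitted from duplicate % cAMP versus DMSO control.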

## CCOc1cc(-c2cc(NCCc3c(C)oc4c(OC)cc(Cl)cc34)ncn2)ccc1C(=O)O [Example 70, 4-{6-[2-(5-Chloro-7-methoxy-2-methyl-benzofuran-3-yl)-ethylamino]-pyrimidin-4-yl}-2-ethoxy-benzoic acid]
PTGER2 (EP2)
  IC50: 37 nM
PTGER4 (EP4)
  IC50: 394 nM
EP2 receptor
  IC50: 80 nM

## CCOc1cc(-c2cc(NCCc3c(C)oc4c(Cl)cc(Cl)cc34)ncn2)ccc1C(=O)O [Example 71, 4-{6-[2-(5,7-Dichloro-2-methyl-benzofuran-3-yl)-ethylamino]-pyrimidin-4-yl}-2-ethoxy-benzoic acid]
PTGER2 (EP2)
  IC50: 7 nM
PTGER4 (EP4)
  IC50: 958 nM
EP2 receptor
  IC50: 10 nM

## CCOc1cc(-c2cc(NCCc3c(C)sc4ccccc34)ncn2)ccc1C(=O)O [Example 72, 2-Ethoxy-4-{6-[2-(2-methyl-benzo[b]thiophen-3-yl)-ethylamino]-pyrimidin-4-yl}-benzoic acid]
PTGER2 (EP2)
  IC50: 3 nM
PTGER4 (EP4)
  IC50: 2250 nM
EP2 receptor
  IC50: 8 nM

## CCOc1cc(-c2cc(NCCc3c(Cl)sc4ccccc34)ncn2)ccc1C(=O)O [Example 75, 4-{6-[2-(2-chloro-benzo[b]thiophen-3-yl)-ethylamino]-pyrimidin-4-yl}-2-ethoxy-benzoic acid]
PTGER2 (EP2)
  IC50: 8 nM
PTGER4 (EP4)
  IC50: 4300 nM
EP2 receptor
  IC50: 9 nM

## Cc1sc2c(C)cccc2c1CCNc1cc(-c2ccc3c(C(=O)O)coc3c2)ncn1 [Example 76, 6-{6-[2-(2,7-Dimethyl-benzo[b]thiophen-3-yl)-ethylamino]-pyrimidin-4-yl}-benzofuran-3-carboxylic acid]
PTGER2 (EP2)
  IC50: 10 nM
PTGER4 (EP4)
  IC50: 1140 nM
EP2 receptor
  IC50: 39 nM

## Cc1sc2c(C)cccc2c1CCNc1cc(-c2ccc3cc(C(=O)O)oc3c2)ncn1 [Example 77, 6-{6-[2-(2,7-Dimethyl-benzo[b]thiophen-3-yl)-ethylamino]-pyrimidin-4-yl}-benzofuran-2-carboxylic acid]
PTGER2 (EP2)
  IC50: 6 nM
PTGER4 (EP4)
  IC50: 1310 nM
EP2 receptor
  IC50: 8 nM

## Cc1sc2c(C)cc(F)cc2c1CCNc1cc(-c2ccc(-c3nc(=O)[nH]o3)cc2)ncn1 [Example 79, 5-(4-{6-[2-(5-Fluoro-2,7-dimethyl-benzo[b]thiophen-3-yl)-ethylamino]-pyrimidin-4-yl}-phenyl)-[1,2,4]oxadiazol-3(2H)-one [tautomeric form: 5-(4-(6-((2-(5-fluoro-2,7-dimethylbenzo[b]thiophen-3-yl)ethyl)amino)pyrimidin-4-yl)phenyl)-[1,2,4]oxadiazol-3-ol]]
PTGER2 (EP2)
  IC50: 26 nM
PTGER4 (EP4)
  IC50: 263 nM
EP2 receptor
  IC50: 106 nM

## Cc1sc2c(C)cc(F)cc2c1CCNc1cc(-c2cc3c(C(=O)O)cccc3[nH]2)ncn1 [Example 82, 2-{6-[2-(5-Fluoro-2,7-dimethyl-benzo[b]thiophen-3-yl)-ethylamino]-pyrimidin-4-yl}-1H-indole-4-carboxylic acid]
PTGER2 (EP2)
  IC50: 13 nM
PTGER4 (EP4)
  IC50: 155 nM
EP2 receptor
  IC50: 21 nM

## COc1cc(Cl)cc2c(CCNc3cc(-c4ccc(C(=O)O)c(OC5CC5)c4)ncn3)c(C)oc12 [Example 83, 4-{6-[2-(5-Chloro-7-methoxy-2-methyl-benzofuran-3-yl)-ethylamino]-pyrimidin-4-yl}-2-cyclopropoxy-benzoic acid]
PTGER2 (EP2)
  IC50: 22 nM
PTGER4 (EP4)
  IC50: 101 nM
EP2 receptor
  IC50: 44 nM

## COc1ccc(F)c2c(CCNc3cc(-c4ccc(C(=O)O)c(OC5CC5)c4)ncn3)c(C)sc12 [Example 84, 2-Cyclopropoxy-4-{6-[2-(4-fluoro-7-methoxy-2-methyl-benzo[b]thiophen-3-yl)-ethylamino]-pyrimidin-4-yl}-benzoic acid]
PTGER2 (EP2)
  IC50: 21 nM
PTGER4 (EP4)
  IC50: 80 nM
EP2 receptor
  IC50: 21 nM

## COc1cc(F)c(F)c2c(CCNc3cc(-c4ccc(C(=O)O)c(OC5CC5)c4)ncn3)c(C)oc12 [Example 85, 2-Cyclopropoxy-4-{6-[2-(4,5-difluoro-7-methoxy-2-methyl-benzofuran-3-yl)-ethylamino]-pyrimidin-4-yl}-benzoic acid]
PTGER2 (EP2)
  IC50: 68 nM
PTGER4 (EP4)
  IC50: 374 nM
EP2 receptor
  IC50: 49 nM

## Cc1sc2c(C)cc(F)cc2c1CCNc1cc(-c2ccc(C(=O)O)c(OCCO)c2)ncn1 [Example 86, 4-{6-[2-(5-fluoro-2,7-dimethyl-benzo[b]thiophen-3-yl)-ethylamino]-pyrimidin-4-yl}-2-(2-hydroxy-ethoxy)-benzoic acid]
PTGER2 (EP2)
  IC50: 19 nM
PTGER4 (EP4)
  IC50: 4520 nM
EP2 receptor
  IC50: 11 nM

## CCCSc1cc(-c2cc(NCCc3c(C)sc4c(C)cccc34)ncn2)ccc1C(=O)O [Example 87, 4-{6-[2-(2,7-Dimethyl-benzo[b]thiophen-3-yl)-ethylamino]-pyrimidin-4-yl}-2-propylsulfanyl-benzoic acid]
PTGER2 (EP2)
  IC50: 5 nM
PTGER4 (EP4)
  IC50: 318 nM
EP2 receptor
  IC50: 15 nM

## CCCSc1cc(-c2cc(NCCc3c(C)sc4ccccc34)ncn2)ccc1C(=O)O [Example 88, 4-{6-[2-(2-Methyl-benzo[b]thiophen-3-yl)-ethylamino]-pyrimidin-4-yl}-2-propylsulfanyl-benzoic acid]
PTGER2 (EP2)
  IC50: 21 nM
PTGER4 (EP4)
  IC50: 1030 nM
EP2 receptor
  IC50: 11 nM

## CCCSc1cc(-c2cc(NCCc3c(C)oc4ccccc34)ncn2)ccc1C(=O)O [Example 89, 4-{6-[2-(2-Methyl-benzofuran-3-yl)-ethylamino]-pyrimidin-4-yl}-2-propylsulfanyl-benzoic acid]
PTGER2 (EP2)
  IC50: 10 nM
PTGER4 (EP4)
  IC50: 1030 nM
EP2 receptor
  IC50: 5 nM

## Cc1sc2c(C)cccc2c1CCNc1cc(-c2ccc(C(=O)O)c(SC(C)C)c2)ncn1 [Example 90, 4-{6-[2-(2,7-Dimethyl-benzo[b]thiophen-3-yl)-ethylamino]-pyrimidin-4-yl}-2-isopropylsulfanyl-benzoic acid]
PTGER2 (EP2)
  IC50: 11 nM
PTGER4 (EP4)
  IC50: 247 nM
EP2 receptor
  IC50: 35 nM

## Cc1sc2ccccc2c1CCNc1cc(-c2ccc(C(=O)O)c(SC(C)C)c2)ncn1 [Example 91, 2-Isopropylsulfanyl-4-{6-[2-(2-methyl-benzo[b]thiophen-3-yl)-ethylamino]-pyrimidin-4-yl}-benzoic acid]
PTGER2 (EP2)
  IC50: 20 nM
PTGER4 (EP4)
  IC50: 843 nM
EP2 receptor
  IC50: 10 nM

## Cc1oc2ccccc2c1CCNc1cc(-c2ccc(C(=O)O)c(SC(C)C)c2)ncn1 [Example 92, 2-Isopropylsulfanyl-4-{6-[2-(2-methyl-benzofuran-3-yl)-ethylamino]-pyrimidin-4-yl}-benzoic acid]
PTGER2 (EP2)
  IC50: 6 nM
PTGER4 (EP4)
  IC50: 816 nM
EP2 receptor
  IC50: 6 nM

## CCc1cc(-c2cc(NCCc3c(C)sc4c(C)cc(F)cc34)ncn2)cc(C)c1CC(=O)O [Example 194, (2-Ethyl-4-{6-[2-(5-fluoro-2,7-dimethyl-benzo[b]thiophen-3-yl)-ethylamino]-pyrimidin-4-yl}-6-methyl-phenyl)-acetic acid]
PTGER2 (EP2)
  IC50: 47 nM
PTGER4 (EP4)
  IC50: 96 nM
EP2 receptor
  IC50: 326 nM

## Cc1sc2c(C)cc(F)cc2c1CCNc1cc(-c2ccc(C(=O)O)c(OC3CC3)c2)ncn1 [Example 195, 2-Cyclopropoxy-4-{6-[2-(5-fluoro-2,7-dimethyl-benzo[b]thiophen-3-yl)-ethylamino]-pyrimidin-4-yl}-benzoic acid]
PTGER2 (EP2)
  IC50: 4 nM
PTGER4 (EP4)
  IC50: 111 nM
EP2 receptor
  IC50: 6 nM

## Cc1sc2c(C)cc(F)cc2c1CCNc1cc(-c2ccc(CC(=O)O)c(OC3CC3)c2)ncn1 [Example 196, (2-Cyclopropoxy-4-{6-[2-(5-fluoro-2,7-dimethyl-benzo[b]thiophen-3-yl)-ethylamino]-pyrimidin-4-yl}-phenyl)-acetic acid]
PTGER2 (EP2)
  IC50: 16 nM
PTGER4 (EP4)
  IC50: 99 nM
EP2 receptor
  IC50: 50 nM

## CCOc1cc(-c2cc(NCCc3c(C)sc4c(C)cc(F)cc34)ncn2)ccc1-c1cc(O)no1 [Example 202, 5-(2-Ethoxy-4-{6-[2-(5-fluoro-2,7-dimethyl-benzo[b]thiophen-3-yl)-ethylamino]-pyrimidin-4-yl}-phenyl)-isoxazol-3-ol [tautomeric form: 5-(2-ethoxy-4-(6-((2-(5-fluoro-2,7-dimethylbenzo[b]thiophen-3-yl)ethyl)amino)pyrimidin-4-yl)phenyl)isoxazol-3(2H)-one]]
PTGER2 (EP2)
  IC50: 17 nM
PTGER4 (EP4)
  IC50: 100 nM
EP2 receptor
  IC50: 75 nM
